Reference: ChEMBL document CHEMBL2375310, “Analysis of the antioxidant properties of differently substituted 2- and 3-indolyl carbohydrazides and related derivatives” (Eur J Med Chem, 2013)
Calls of active or inactive are those of the source. The calls are words filed in the database; no cut-off is given here.

Columns and labels:
Rattus norvegicus = assay: Antiinflammatory activity in Fisher 344 rat assessed as reduction of carrageenan-induced paw oedema at 0.01 mmol/kg, ip after 3.5 hrs; format: functional; parameters: scale not given: the % may be the effect or the level left
[1] = Antioxidant activity assessed as xanthine-xanthine oxidase-induced superoxide anion radical scavenging activity at 0.1 mM after 10 mins by spectrophotometry; format: functional
[2] = system: Radical scavenging activity; assay: Antioxidant activity assessed as DPPH free radical scavenging activity at 100 uM after 20 mins by spectrophotometry; format: functional
[3] = system: Radical scavenging activity; assay: Antioxidant activity assessed as DPPH free radical scavenging activity at 50 uM after 20 to 60 mins by spectrophotometry; format: functional
[4] = Antioxidant activity assessed as Fe3+/ascorbic acid-induced hydroxyl radical scavenging activity at 100 uM after 30 mins; format: functional
Glycine max = assay: Inhibition of soybean lipoxygenase at 100 uM
[5] = Antioxidant activity against AAPH-induced lipid peroxidation at 100 uM by UV spectrophotometry; format: functional
[6] = system: Radical scavenging activity; assay: Antioxidant activity assessed as DPPH free radical scavenging activity at 100 uM after 60 mins by spectrophotometry; format: functional
[7] = system: Radical scavenging activity; assay: Antioxidant activity assessed as DPPH free radical scavenging activity at 100 uM by spectrophotometry; format: functional
[8] = Inhibition of soybean lipoxygenase; parameters: species or system Glycine max

| SMILES | Activity (Rattus norvegicus) [%] | Activity [1] | Activity [2] | Activity [3] | Activity [4] | inhibition (Glycine max) | Activity [5] | Activity [6] [%] | Activity [7] | IC50 [8] [µM] |
| --- | --- | --- | --- | --- | --- | --- | --- | --- | --- | --- |
| COc1ccc2c(c1)c(CC(=O)O)c(C)n2C(=O)c1ccc(Cl)cc1 [INDOMETHACIN] | 47 | – | – | – | – | – | – | – | – | – |
| C/C(Cc1ccccc1)=N/NC(=O)c1c[nH]c2ccc(O)cc12 | – | inactive | 65% | inactive | 2% | 52% | 50% | 80 | – | – |
| Cc1c(C)c2c(c(C)c1O)CCC(C)(C(=O)O)O2 (centres undefined) | – | – | – | – | 73% | – | 63% | – | – | – |
| NNCCCc1c[nH]c2ccccc12 | – | inactive | 85% | inactive | 34% | inactive | 25% | 99 | – | – |
| O=C(NN=C1CCCC1)c1cc2ccccc2[nH]1 | – | inactive | inactive | inactive | 17% | 37% | 65% | 38 | Active | – |
| O=C(O)/C=C/c1ccc(O)c(O)c1 | – | 15% | – | – | – | – | – | – | – | – |
| O=C(NNCCCc1ccccc1)c1cc2ccccc2[nH]1 | – | inactive | 53% | inactive | inactive | 33% | 64% | 8.5 | Active | – |
| C/C(CC(C)C)=N\NC(=O)c1cc2ccccc2[nH]1 | – | inactive | 10% | inactive | 74% | 31% | 68% | 36 | Active | – |
| CC(C)=NNC(=O)c1cc2ccccc2n1C | 40 | 100% | inactive | inactive | 18% | – | 87% | 91 | – | 62.5 |
| CC(Cc1ccc(O)c(O)c1)C(C)Cc1ccc(O)c(O)c1 (centres undefined) | – | – | 81% | – | – | – | – | 83 | – | – |
| NNC(=O)CCc1c[nH]c2ccccc12 | – | 67% | 12.5% | inactive | inactive | inactive | inactive | 56 | – | – |
| CCC(CC)NNC(=O)c1cc2ccccc2[nH]1 | – | inactive | 11% | inactive | 61% | 19% | 30% | 16 | Active | – |
| Cc1ccc(CNNC(=O)c2cc3ccccc3n2C)cc1 | – | 67% | 66% | inactive | inactive | – | 85% | 61 | Active | 78 |
| CCCCNNC(=O)c1cc2ccccc2[nH]1 | 57 | 33% | 79% | inactive | 90% | – | 78% | 8 | Active | 62.5 |
